In ChEMBL document CHEMBL1208786, “1-Methyl-1H-pyrrole-2-carbonitrile containing tetrahydronaphthalene derivatives as non-steroidal progesterone receptor antagonists” (Bioorg Med Chem Lett, 2010):
Activity calls are given as the source filed them. The rule behind the calls is not given here.

What was measured:
[1] = biological target: T1, Progesterone receptor (Homo sapiens, UniProt P06401); experiment: Antagonist activity at progesterone receptor in human T47D cells assessed as inhibition of progesterone-induced alkaline phosphatase activity; assay type: functional, cell-based
T1 sequence (P06401 whole entry): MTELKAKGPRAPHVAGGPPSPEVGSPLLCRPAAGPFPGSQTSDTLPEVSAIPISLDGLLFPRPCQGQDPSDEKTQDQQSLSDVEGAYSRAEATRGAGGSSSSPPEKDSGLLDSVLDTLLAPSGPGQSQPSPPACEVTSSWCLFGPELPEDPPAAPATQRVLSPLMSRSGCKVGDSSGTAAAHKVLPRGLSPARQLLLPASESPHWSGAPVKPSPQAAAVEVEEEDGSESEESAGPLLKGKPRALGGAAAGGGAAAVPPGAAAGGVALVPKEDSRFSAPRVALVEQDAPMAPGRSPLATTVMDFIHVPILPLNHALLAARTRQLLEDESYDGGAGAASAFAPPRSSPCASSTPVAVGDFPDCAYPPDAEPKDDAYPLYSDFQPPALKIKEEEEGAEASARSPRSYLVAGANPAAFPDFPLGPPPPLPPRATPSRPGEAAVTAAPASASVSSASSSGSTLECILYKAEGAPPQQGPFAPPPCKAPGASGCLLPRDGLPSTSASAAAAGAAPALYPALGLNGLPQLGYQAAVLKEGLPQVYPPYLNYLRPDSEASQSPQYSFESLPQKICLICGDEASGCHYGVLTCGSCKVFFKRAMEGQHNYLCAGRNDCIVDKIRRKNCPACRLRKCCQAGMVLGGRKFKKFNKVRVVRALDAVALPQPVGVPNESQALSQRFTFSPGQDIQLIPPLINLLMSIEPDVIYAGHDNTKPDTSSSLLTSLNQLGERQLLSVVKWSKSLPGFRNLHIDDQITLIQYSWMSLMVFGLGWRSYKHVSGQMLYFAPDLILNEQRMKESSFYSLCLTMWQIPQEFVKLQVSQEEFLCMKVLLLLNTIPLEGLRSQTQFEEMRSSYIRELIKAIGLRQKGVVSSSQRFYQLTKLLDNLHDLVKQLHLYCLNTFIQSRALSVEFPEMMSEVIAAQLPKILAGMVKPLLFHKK

[2] = biological target: T2, Mineralocorticoid receptor (Homo sapiens) (UniProt P08235); experiment: Antagonist activity at mineralocorticoid receptor ligand binding domain up to 10 uM by two hybrid assay
T2 sequence (whole entry): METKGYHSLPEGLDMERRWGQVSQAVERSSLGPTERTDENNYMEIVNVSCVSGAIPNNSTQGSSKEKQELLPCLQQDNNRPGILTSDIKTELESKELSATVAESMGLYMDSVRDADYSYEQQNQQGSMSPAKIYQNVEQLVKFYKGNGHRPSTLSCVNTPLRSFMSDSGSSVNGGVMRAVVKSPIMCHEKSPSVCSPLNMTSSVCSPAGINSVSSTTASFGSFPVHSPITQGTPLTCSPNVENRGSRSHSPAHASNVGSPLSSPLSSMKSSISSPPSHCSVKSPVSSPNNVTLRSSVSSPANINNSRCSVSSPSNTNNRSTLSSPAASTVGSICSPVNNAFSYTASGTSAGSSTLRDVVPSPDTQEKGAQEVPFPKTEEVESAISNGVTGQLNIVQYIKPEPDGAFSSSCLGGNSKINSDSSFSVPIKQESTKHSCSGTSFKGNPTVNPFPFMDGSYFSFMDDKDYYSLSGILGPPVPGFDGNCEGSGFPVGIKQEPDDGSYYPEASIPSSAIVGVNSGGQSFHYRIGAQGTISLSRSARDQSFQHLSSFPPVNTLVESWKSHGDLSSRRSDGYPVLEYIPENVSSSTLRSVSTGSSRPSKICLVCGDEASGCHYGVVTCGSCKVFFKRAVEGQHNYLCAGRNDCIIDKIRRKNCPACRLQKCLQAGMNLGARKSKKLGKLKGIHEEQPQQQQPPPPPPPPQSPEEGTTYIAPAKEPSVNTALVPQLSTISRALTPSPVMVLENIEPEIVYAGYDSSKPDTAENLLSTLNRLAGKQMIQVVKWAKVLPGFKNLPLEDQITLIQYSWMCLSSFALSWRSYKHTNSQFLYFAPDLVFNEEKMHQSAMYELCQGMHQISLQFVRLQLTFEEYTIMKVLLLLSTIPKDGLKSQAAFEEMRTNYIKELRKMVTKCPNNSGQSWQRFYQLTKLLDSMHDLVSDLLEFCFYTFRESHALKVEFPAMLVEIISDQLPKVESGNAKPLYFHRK

[3] = biological target: T3, Estrogen receptor (Homo sapiens) (UniProt P03372); experiment: Antagonist activity at estrogen receptor ligand binding domain up to 10 uM by two hybrid assay
T3 sequence (whole entry): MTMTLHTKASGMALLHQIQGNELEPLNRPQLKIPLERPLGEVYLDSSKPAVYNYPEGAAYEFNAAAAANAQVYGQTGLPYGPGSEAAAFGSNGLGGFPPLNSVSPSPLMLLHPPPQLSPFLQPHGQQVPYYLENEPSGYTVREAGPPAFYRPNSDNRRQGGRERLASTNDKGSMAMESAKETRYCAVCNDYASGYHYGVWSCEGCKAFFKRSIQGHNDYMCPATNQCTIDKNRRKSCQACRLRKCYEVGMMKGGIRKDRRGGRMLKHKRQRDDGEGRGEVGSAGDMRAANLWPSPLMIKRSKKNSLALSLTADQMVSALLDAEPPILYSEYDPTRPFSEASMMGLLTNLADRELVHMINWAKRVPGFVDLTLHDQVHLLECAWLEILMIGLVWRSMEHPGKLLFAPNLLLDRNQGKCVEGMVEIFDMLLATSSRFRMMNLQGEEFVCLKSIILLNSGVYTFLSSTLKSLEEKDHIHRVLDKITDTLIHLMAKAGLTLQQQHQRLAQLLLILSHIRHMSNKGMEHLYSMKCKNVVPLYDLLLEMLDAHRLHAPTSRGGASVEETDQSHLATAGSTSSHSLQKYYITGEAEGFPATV

[4] = biological target: T4, Glucocorticoid receptor (Homo sapiens) (UniProt P04150); experiment: Antagonist activity at glucocorticoid receptor ligand binding domain up to 10 uM by two hybrid assay
T4 sequence (whole entry): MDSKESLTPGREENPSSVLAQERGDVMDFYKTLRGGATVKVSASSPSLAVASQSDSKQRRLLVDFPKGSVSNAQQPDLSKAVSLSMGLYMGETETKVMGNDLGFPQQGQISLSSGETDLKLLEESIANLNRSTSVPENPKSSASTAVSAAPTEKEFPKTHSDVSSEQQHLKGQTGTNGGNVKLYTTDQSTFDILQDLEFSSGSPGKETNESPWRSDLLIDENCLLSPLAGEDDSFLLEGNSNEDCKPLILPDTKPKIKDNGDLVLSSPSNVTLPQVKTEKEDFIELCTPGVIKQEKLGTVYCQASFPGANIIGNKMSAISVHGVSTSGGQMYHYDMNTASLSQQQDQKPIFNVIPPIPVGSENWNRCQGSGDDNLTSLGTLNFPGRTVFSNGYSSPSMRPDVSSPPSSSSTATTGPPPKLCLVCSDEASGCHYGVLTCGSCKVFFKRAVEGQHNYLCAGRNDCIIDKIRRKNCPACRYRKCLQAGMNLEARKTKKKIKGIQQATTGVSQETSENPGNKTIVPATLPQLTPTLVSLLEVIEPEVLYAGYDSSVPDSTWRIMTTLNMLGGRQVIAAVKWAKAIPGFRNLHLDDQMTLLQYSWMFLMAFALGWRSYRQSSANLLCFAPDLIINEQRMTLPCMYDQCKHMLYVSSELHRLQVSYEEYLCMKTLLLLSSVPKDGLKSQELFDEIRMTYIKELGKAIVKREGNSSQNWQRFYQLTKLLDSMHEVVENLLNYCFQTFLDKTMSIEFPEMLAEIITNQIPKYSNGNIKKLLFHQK

[5] = biological target: T5, Androgen receptor (Homo sapiens, UniProt P10275); experiment: Antagonist activity at androgen receptor ligand binding domain by two hybrid assay
T5 sequence (P10275 whole entry): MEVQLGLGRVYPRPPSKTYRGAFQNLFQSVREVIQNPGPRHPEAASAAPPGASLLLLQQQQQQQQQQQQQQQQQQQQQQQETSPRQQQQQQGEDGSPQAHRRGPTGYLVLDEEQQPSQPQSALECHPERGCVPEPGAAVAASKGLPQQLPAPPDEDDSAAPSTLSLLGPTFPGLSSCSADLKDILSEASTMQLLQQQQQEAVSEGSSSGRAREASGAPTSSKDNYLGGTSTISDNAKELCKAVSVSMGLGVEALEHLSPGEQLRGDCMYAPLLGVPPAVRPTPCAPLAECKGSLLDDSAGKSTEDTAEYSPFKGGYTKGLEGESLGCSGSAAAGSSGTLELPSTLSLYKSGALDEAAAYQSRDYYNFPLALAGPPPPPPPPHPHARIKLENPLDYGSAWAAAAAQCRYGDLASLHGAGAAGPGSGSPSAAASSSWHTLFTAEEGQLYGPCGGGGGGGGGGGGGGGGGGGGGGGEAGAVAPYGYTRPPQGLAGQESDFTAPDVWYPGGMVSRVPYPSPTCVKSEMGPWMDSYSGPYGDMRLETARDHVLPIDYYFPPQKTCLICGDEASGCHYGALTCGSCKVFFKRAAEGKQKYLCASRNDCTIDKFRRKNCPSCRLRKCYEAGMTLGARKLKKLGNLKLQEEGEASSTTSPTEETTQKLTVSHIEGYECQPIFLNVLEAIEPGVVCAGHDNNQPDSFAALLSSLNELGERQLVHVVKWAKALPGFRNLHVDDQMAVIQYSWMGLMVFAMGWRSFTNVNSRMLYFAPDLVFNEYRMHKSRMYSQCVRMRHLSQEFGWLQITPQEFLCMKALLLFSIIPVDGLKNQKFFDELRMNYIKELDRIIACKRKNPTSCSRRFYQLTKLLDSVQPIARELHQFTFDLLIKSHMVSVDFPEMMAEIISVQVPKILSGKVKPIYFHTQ

Row | Compound | IC50 [1] [nM] | also measured
1 | Cn1c(C#N)ccc1-c1ccc(C(O)c2cccs2)cc1 (stereo not drawn) | 47 | –
2 | CC(=O)c1ccc(-c2ccc(C#N)n2C)cc1 | 800 | –
3 | CC(O)c1ccc(-c2ccc(C#N)n2C)cc1 (stereo not drawn) | 36 | –
4 | CC#CC1(O)CCCc2cc(-c3ccc(C#N)n3C)ccc21 (stereo not drawn) | 10 | –
5 | CC/C(=N/O)c1ccc(-c2ccc(C#N)n2C)cc1 | 17 | –
6 | Cn1c(C#N)ccc1-c1ccc2c(c1)CCC/C2=N/O | 33 | –
7 | CCC(O)c1ccc(-c2ccc(C#N)n2C)cc1 (stereo not drawn) | 27 | –
8 | Cn1c(C#N)ccc1-c1ccc(/C(=N\O)C(C)(C)C)cc1 | 3 | inhibition [2]: inactive; inhibition [3]: inactive; inhibition [4]: inactive; IC50 [5]: 165 nM
9 | Cn1c(C#N)ccc1-c1ccc2c(c1)CCCC2(C)O (stereo not drawn) | 6 | –
10 | Cn1c(C#N)ccc1-c1ccc(C(=O)C(C)(C)C)cc1 | 3 | inhibition [2]: inactive; inhibition [3]: inactive; inhibition [4]: inactive; IC50 [5]: 100 nM
11 | Cn1c(C#N)ccc1-c1ccc2c(c1)CCCC2(O)c1ccccc1 (stereo not drawn) | 35 | –
12 | Cn1c(C#N)ccc1-c1ccc2c(c1)CCCC2O (stereo not drawn) | 7 | –
13 | Cn1c(C#N)ccc1-c1ccc(C(O)c2ccccc2)cc1 (stereo not drawn) | 118 | –
14 | Cn1c(C#N)ccc1-c1ccc2c(c1)CCCC2=O | 28 | –
15 | C/C(=N/O)c1ccc(-c2ccc(C#N)n2C)cc1 | 108 | –
